These are literature values, as cited in patent US6696575B2, “Biodegradable, electrically conducting polymer for tissue engineering applications” (Board of Regents, The University of Texas System, priority 2001, dated 2004).

One series concerns mouse. Particulars: oral administration.
Another series concerns rat. Particulars: oral administration.
The test system of the next series is rat sciatic nerve. Particulars: in vivo.

As to `OCCCO` [Propanediol, 1,3-propanediol], the “one-half lethal dose (LD50)” value in the series on mouse is 5000 mg/kg.

Regarding `CCO` [ethanol], the “one-half lethal dose (LD50)” value in the series on rat is 7000 mg/kg.

Turning to `CCCCCC(=O)O` [hexanoic acid], the “one-half lethal dose (LD50)” value in the series with rat is 3000 mg/kg.

As to polypyrrole [PP], the “tissue response on implantation” value in the series with rat sciatic nerve is on record as “provoked little adverse tissue response”.
